# Results reported in PubChem BioAssay AID1845228.
# Conditions: pampa; 60.0 min; 50.0 µM
row,SMILES,Papp [×10⁻⁶ cm/s]
1,CCOc1ccc2ccccc2c1C(=O)N[C@@H]1C(=O)N2[C@@H]1SC(C)(C)[C@@H]2C(=O)O,< 1
2,CC(C)N(C[C@H]1O[C@@H](n2cnc3c(N)ncnc32)[C@H](O)[C@@H]1O)C1CC(CCc2nc3ccc(C(C)(C)C)cc3[nH]2)C1 (stereo partly specified),< 1
3,Cc1cc(=O)c(C(=O)N[C@@H](C(=O)N[C@@H]2C(=O)N3C(C(=O)O)=C(CSc4nnnn4C)CS[C@H]23)c2ccc(O)cc2)c[nH]1,< 1
4,CC1(C)SCCN(S(=O)(=O)c2ccc(Oc3ccncc3)cc2)[C@H]1C(=O)NO,9
5,CN1CCN(c2ccc(C(=O)Nc3n[nH]c4ccc(Cc5cc(F)cc(F)c5)cc34)c(NC3CCOCC3)c2)CC1,113
6,N#Cc1cccc(NC(=O)c2sc3nc4c(cc3c2N)N2CCC4CC2)c1,142
7,COc1cc2c(Nc3ccc(Cl)c(Cl)c3F)ncnc2cc1OCC1C[C@@H]2CN(C)C[C@@H]2C1 (stereo partly specified),> 300
8,NC(=O)[C@@H]1C[C@]2(NC(=O)NC2=O)c2cc(F)ccc2O1,< 1
9,O=C(N/N=C/c1ccc(O)c(O)c1)c1cc2ccccc2cc1O,5
10,CC(Oc1ccccc1)C(=O)N[C@@H]1C(=O)N2[C@@H]1SC(C)(C)[C@@H]2C(=O)O (stereo partly specified),25
11,Cn1nnnc1Sc1ncnc2scc(-c3cccc4c3sc3ccccc34)c12,12
12,CN1CCN(CCCN2c3ccccc3Sc3ccc(C(F)(F)F)cc32)CC1,53
13,Cn1cnc2c(F)c(Nc3ccc(Br)cc3F)c(C(=O)NOCCO)cc21,19.3
14,Cn1nnnc1Sc1ncnc2scc(-c3cccc(Cl)c3)c12,134
15,CCOc1cc2ncc(C#N)c(Nc3ccc(F)c(Cl)c3)c2cc1NC(=O)C=CCN(C)C,256
16,CC[C@@]1(O)C(=O)OCc2c1cc1n(c2=O)Cc2cc3ccccc3nc2-1,23
17,CCNC1(C(N)=O)CN(c2nc(C)nc3c(-c4ccc(Cl)cc4)c(-c4ccccc4Cl)nn23)C1,8.69
18,CNC1CCC(N(Cc2ccc(OC)c(-c3ccc(C#N)cc3)c2)C(=O)c2sc3ccccc3c2Cl)CC1 (stereo unspecified),234
19,COCCn1cnc2c(c(-c3ccccc3)c(-c3ccccc3)n2Cc2ccccc2)c1=N,174
20,CCCC(C)(COC(N)=O)COC(=O)NC(C)C (stereo unspecified),11
21,O=C(NN1CCCCC1)c1nn(-c2ccc(Cl)cc2Cl)c(-c2ccc(C#Cc3ccc(C(F)(F)F)cc3)s2)c1CNS(=O)(=O)N1CCCC1,4
22,c1ccc(Nc2nc3c(s2)CCCc2[nH]ncc2-3)nc1,194
23,CCOC(CCCn1cnc2c(c(-c3ccccc3)c(-c3ccccc3)n2Cc2ccccc2)c1=N)OCC,228
24,N=c1c2c(-c3ccccc3)cn(Cc3ccccc3)c2ncn1C(CO)(CO)CO,> 300

row,SMILES,Papp [×10⁻⁶ cm/s]
1,O=C(O)C1=C(CSc2nnnn2CS(=O)(=O)O)CS[C@@H]2[C@H](NC(=O)[C@H](O)c3ccccc3)C(=O)N12,12
2,[O-][n+]1cccc(/C(Cl)=N/OC[C@@H](O)CN2CCCCC2)c1,2
3,NC(=O)NCC(=O)N[C@H]1CC[C@H](Nc2nccc(-c3ccncc3)n2)C1,< 1
4,Nc1ncnc2c1ncn2[C@@H]1O[C@H](CSCC[C@H](N)C(=O)O)[C@@H](O)[C@H]1O,< 1
5,CC(=O)OCC1=C(C(=O)O)N2C(=O)[C@@H](NC(=O)[C@H](N)c3ccccc3)[C@H]2SC1,< 1
6,Nc1nc(N)c2c(OCC3CCN(Cc4ccccc4F)CC3)cccc2n1,12
7,Cn1nnnc1Sc1ncnc2scc(-c3ccc(C(=O)OC(C)(C)C)cc3)c12,72
8,CS/C=C/C(=O)O[C@@H]1CCC2=CC(=O)C(=C(C)C)C[C@]2(C)[C@H]1C,77
9,O=C(Nc1ccc(S(=O)(=O)N2CCOCC2)cc1)c1cc(Cl)ccc1NS(=O)(=O)c1ccc(Cl)s1,85
10,CC(=O)NCCNC(=O)c1ccc(-c2ncc3cnc(-c4cccc(F)c4)cn23)cc1,11
11,CN(C)CCN(C)C(=O)c1ccc(-c2ncc3cnc(-c4cccc(F)c4)cn23)cc1,90
12,CC1(C)CC(=O)c2c(C(F)(F)F)nn(-c3ccc(C(N)=O)c(NC4CCC(O)CC4)c3)c2C1 (stereo unspecified),21.5
13,O=C1[C@H](CC[C@H](O)c2ccc(F)cc2)[C@@H](c2ccc(O)cc2)N1c1ccc(F)cc1,< 1
14,CNS(=O)(=O)Cc1ccc2[nH]cc(CCN(C)C)c2c1,< 1
15,C[C@]12CCCN1CC1=NNC(=O)c3cc(F)cc4[nH]c2c1c34,22
16,CC1(C)S[C@@H]2[C@@H](N3C(=O)[C@@H](c4ccccc4)NC3(C)C)C(=O)N2[C@H]1C(=O)O,> 300
17,O=C(O)C1CCc2cc(C3CCCCC3)c(Cl)cc21 (stereo unspecified),61
18,CC[C@@]1(O)C(=O)OCc2c1cc1n(c2=O)Cc2c-1nc1ccccc1c2/C=N/OC(C)(C)C,81
19,NC(=O)[C@H](Cc1ccccc1)NC(=O)[C@H](Cc1ccccc1)NC(=O)[C@@H]1CCCN1C(=O)[C@@H](N)Cc1ccc(O)cc1,< 1
20,Cn1c(CCCCCCC(=O)NO)nc2cc(N(CCCl)CCCl)ccc21,< 1
21,O=C(Nc1ncc([N+](=O)[O-])s1)c1ccccc1O,8
22,Cc1cc(-c2nc(C(=O)Nc3cn(C4CCOCC4)nc3C(N)=O)co2)ccn1,43
23,O=C(Nc1ccccc1)N1CCC(Cc2cnc3ccccc3c2)CC1,> 300
24,COc1ccc(N(C)c2nc(C)nc3ccccc23)cc1,220

row,SMILES,Papp [×10⁻⁶ cm/s]
1,O=C1CCc2ccc(OCCCCN3CCN(c4cccc(Cl)c4Cl)CC3)cc2N1,19
2,C[C@@H]1COCCN1c1cc(C2(S(C)(=N)=O)CC2)nc(-c2ccnc3[nH]ccc23)n1 (stereo partly specified),33
3,N=c1c2c(-c3ccccc3)cn(Cc3ccc(Br)cc3)c2ncn1CCCCO,208
4,COc1ccc(Cn2c(-c3ccccc3)c(-c3ccccc3)c3c(=N)n(CCCCO)cnc32)cc1,279
5,Cn1nnnc1Sc1ncnc2scc(-c3cccc4ccccc34)c12,265
6,CCCCN(CCCC)C(=O)CN1C[C@H](c2ccc3c(c2)OCO3)[C@@H](C(=O)O)[C@@H]1c1ccc(OC)cc1,9
7,C/C1=C\CC[C@]2(C)O[C@H]2C(=O)c2c(C)coc2C1,122
8,N=c1c2c(-c3ccccc3)c(-c3ccccc3)n(CCc3ccccc3)c2ncn1CCCCCO,183
9,CCCN(CCC)CCc1cccc2c1CC(=O)N2,34
10,Cn1cc(C2=C(c3cn(CCCSC(=N)N)c4ccccc34)C(=O)NC2=O)c2ccccc21,< 1
11,CNC(=O)C1CCN(C(=O)c2ccc(-c3ncc4cnc(-c5ccccc5)cn34)cc2)CC1,12
12,Cc1nc(C2CCCCC2)c(-c2ccc(S(N)(=O)=O)c(F)c2)o1,172
13,Cc1oc(=O)oc1COC(=O)N1CC[C@@H](N2CC/C(=C\C3=C(C(=O)O)N4C(=O)[C@@H](NC(=O)/C(=N/O)c5nsc(N)n5)[C@H]4SC3)C2=O)C1,3
14,CC(C)C(=O)OCc1cccc(OC(=O)[C@@H]2N3C(=O)[C@@H](NC(=O)Cc4ccccc4)[C@H]3SC2(C)C)c1,84
15,O=C(NCCO)c1cc(C(=O)NCCO)cc(C(=O)NCCO)c1,< 1
16,CNCCCOc1cc(F)c(-c2c(Cl)nc3ncnn3c2N[C@@H](C)C(F)(F)F)c(F)c1,26
17,Cc1nc2c([nH]1)CCN(C(=O)c1ccc(NC(=O)c3ccccc3-c3ccccc3)cc1)c1ccccc1-2,98
18,C[C@H](Nc1nc(N[C@H](C)C(F)(F)F)nc(-c2cccc(Cl)n2)n1)C(F)(F)F,122
19,C=CCNC1=C2C[C@@H](C)C[C@H](OC)[C@H](O)[C@@H](C)/C=C(\C)[C@H](OC(N)=O)[C@@H](OC)/C=C\C=C(/C)C(=O)NC(=CC1=O)C2=O,73
20,COc1ccc(CCNC(=O)CCc2c(C)c3cc4c(C)coc4cc3oc2=O)cc1,279
21,COC(=O)C[C@@H](C(=O)OC)n1cnc2c(c(-c3ccccc3)cn2Cc2ccc(Br)cc2)c1=N,< 1
22,CC(=O)Nc1ccc(OC(=O)c2ccccc2OC(C)=O)cc1,27
23,NC1CCN(C(=O)C2CCCN(c3nc(-c4ccccc4)nc4c3CCC4)C2)CC1 (stereo unspecified),179
24,CC(=O)Nc1cccc(-n2c(=O)n(C3CC3)c(=O)c3c(Nc4ccc(I)cc4F)n(C)c(=O)c(C)c32)c1,259

row,SMILES,Papp [×10⁻⁶ cm/s]
1,CC[C@@H]1CN(C(=O)NCC(F)(F)F)C[C@@H]1c1cnc2cnc3[nH]ccc3n12,2
2,O=C(NCc1ccc(OC(F)(F)F)cc1)C1c2ccccc2C(=O)N1C1CCOCC1 (stereo unspecified),42
3,N=c1c2c(-c3ccccc3)c(-c3ccccc3)n(Cc3ccccc3)c2ncn1[C@H](CO)Cc1ccccc1,< 1
4,Cc1ccc(CN2C(=O)C(=O)c3cc(Br)cc(C)c32)cc1,98.5
5,NCCc1ccc(O)c(O)c1,< 1
6,O=C1NCN(c2ccccc2)C12CCN(CCCC(c1ccc(F)cc1)c1ccc(F)cc1)CC2,42
7,Cc1ccnc2c1NC(=O)c1cccnc1N2C1CC1,26
8,CC(=O)Nc1ccc(C(=O)NC(C)(C)C)cc1,2
9,CC(=O)NC[C@H]1CN(c2ccc(N3CCOCC3)c(F)c2)C(=O)O1,5
10,O=C(O)[C@@H]1C[C@H]2C[C@@H](CCc3nn[nH]n3)CC[C@H]2CN1,3
11,O=C(CCCN1CCC(O)(c2ccc(Cl)cc2)CC1)c1ccc(F)cc1,217
12,CCO/N=C(\C(=O)N[C@@H]1C(=O)N2C(C(=O)O)=C(Sc3nc(-c4cc[n+](C)cc4)cs3)CS[C@H]12)c1nsc(NP(=O)(O)O)n1,2
13,COc1cc2c(cc1OC)[C@@H](Cc1cc(OC)c(OC)c(OC)c1)[N+](C)(CCCOC(=O)CC/C=C/CCC(=O)OCCC[N+]1(C)CCc3cc(OC)c(OC)cc3[C@H]1Cc1cc(OC)c(OC)c(OC)c1)CC2 (stereo partly specified),< 1
14,Nc1nc2c(s1)CCN(Cc1ccc(Cl)cc1)CC2,127
15,O=C(O)Cc1ccc2c(c1)C(=O)c1ccccc1CO2,< 1
16,N=c1c2c(-c3ccccc3)cn(Cc3ccccc3)c2ncn1C1CCC(O)CC1 (stereo unspecified),217
17,N=c1c2c(-c3ccccc3)c(-c3ccccc3)n(Cc3ccccc3)c2ncn1CC1CCCO1 (stereo unspecified),207
18,CCC(=O)C1=C(c2ccc(F)cc2)N(C(=O)CC)n2cnnc2S1,189
19,CN(C)CCn1cnc2c(c(-c3ccccc3)c(-c3ccccc3)n2CCc2ccccc2)c1=N,148
20,OCCOCCN1CCN(C(c2ccccc2)c2ccc(Cl)cc2)CC1 (stereo unspecified),114
21,CC(C)C[C@H](CO)Nc1nc(S[C@@H](C)c2ccccc2)nc2nc(N)sc12,244
22,N=c1c2c(-c3ccccc3)c(-c3ccccc3)n(CCc3ccccc3)c2ncn1CCCCO,218
23,COc1ccc(-c2noc(CC(=O)O)c2-c2ccc(OC)cc2)cc1,< 1
24,CCN(CC)CCNc1ccc2ncn3c4ccc(O)cc4c(=O)c1c23,17
